Laboratory results reported in US7749698B2, “p53 wild-type as biomarker for the treatment with mTOR inhibitors in combination with a cytotoxic agent” (Novartis AG, priority 2004, dated 2010).

Legend:
[1] = test system: p53 (TP53) wild-type MCF7 cells; experiment: p21 and Bax immunoblot, cisplatin with or without mTOR inhibitor; format: cell-based, human; settings: for Bax protein expression: either agent alone or in combination
Procedure: (§1) p53 (TP53) wild-type A549 and MCF7 cells are seeded at a density of 0.3×10^6 and 0.4×10^6 cells/4 ml per 6 cm plates, respectively, and incubated for 24 hours at 37° C. and 5% CO2. Cells are incubated with suboptimal concentrations of cisplatin (e.g. 0.5 to 4 μg/ml) either in combination with 20 nM 40-O-(2-hydroxyethyl) rapamycin or with the vehicle-control DMSO for an additional 24 hours and 30 hours, respectively. Cell extracts corresponding to 30 μg total protein are resolved on 15% SDS-PAGE electrophoresis and immunoblot analysis is performed using mouse monoclonal antibodies raised against p21 (Oncogene Research Products, Clone EA10, catalogue #OP64). […] Strikingly, the presence of the mTOR inhibitor, e.g. 40-O-(2-hydroxyethyl) rapamycin, attenuates cisplatin-induced upregulation of p21 protein expression. In contrast, Bax protein expression, a p53-regulated pro-apoptotic protein, is unaffected by either agent alone or in combination. In this assay cytotoxic-induced p21 protein expression is inhibited by the presence of the mTOR inhibitor. This provides an explanation for the enhanced cell killing/apoptotic response observed with cisplatin and mTOR inhibitor combinations.

[2] = test system: p53 (TP53) wild-type A549 cells; experiment: as above; format: cell-based, human; settings: for Bax protein expression: either agent alone or in combination
Procedure: as §1

[3] = test system: PC3M human prostate carcinoma cells; experiment: YO-PRO cell death/cytotoxicity assay, gemcitabine combination; format: cell-based; settings: p53 mutated/deficient, 20 nM with gemcitabine
Procedure: (§2) p53 (TP53) wild-type human adenocarcinoma A549 (CCL-185) tumor cells (American Type Culture Collection, Rockville, Md., USA) are seeded at a density of 2×10^3 cells/100 μl per well in 96-well plates and incubated for 24 hours at 37° C. and 5% CO2. Cells are incubated with suboptimal concentrations of gemcitabine (e.g. 5 to 17.5 nM) either in combination with 20 nM 40-O-(2-hydroxyethyl) rapamycin or with the vehicle-control DMSO for an additional 72 hours. YO-PRO dye (YO-PRO^R-1 iodide [491/509], cat #Y3603, Molecular Probes) is added to the cells and a Cytofluor II Fluorescence plate reader is used to determine cell death or cytotoxicity and, after cell lysis, the relative cell proliferation.
(§3) This procedure is repeated however with the use of p53 (TP53) mutated/deficient tumor cell lines, e.g. PC3M human prostate carcinoma cells (seeded at a density of 0.8×10^3 cells/100 μl) or MDA-MB231 human breast carcinoma cells (seeded at a density of 2×10^3 cells/100 μl; HTB-26; American Type Culture Collection).

[4] = test system: MDA-MB231 human breast carcinoma cells; experiment: as above; format: cell-based; settings: MDA-MB231, p53 mutated/deficient; 20 nM with gemcitabine
Procedure: as §2, §3

A549 cells [5] = experiment: PARP cleavage immunoblot, cisplatin combination; format: cell-based, human; settings: 20 nM with cisplatin 0.5 to 4 μg/ml, 24 hours, compared to cisplatin or the mTOR inhibitor alone
Procedure: A549 cells are seeded at a density of 0.1×10^6 cells/10 ml per 10 cm plates and incubated for 24 hours at 37° C. and 5% CO2. Cells are incubated with suboptimal concentrations of cisplatin (e.g. 0.5 to 4 μg/ml) either in combination with 20 nM 40-O-(2-hydroxyethyl) rapamycin or with the vehicle-control DMSO for an additional 24 hours. Cell extracts corresponding to 50 μg total protein are resolved on 8% SDS-PAGE electrophoresis and immunoblot analysis is performed using rabbit polyclonal antibodies raised against Poly (ADP-Ribose) Polymerase (PARP) and p53. […] This confirms the above results that, in the p53 (TP53) wild-type A549 cells, the presence of the mTOR inhibitor results in higher levels of cell death at suboptimal cisplatin concentrations.

DU145 = experiment: YO-PRO cell death/cytotoxicity assay, cisplatin combination; format: cell-based; settings: DU145, p53 mutated/deficient; 20 nM with cisplatin, 22 hours
Procedure: (§4) p53 (TP53) wild-type human lung adenocarcinoma A549 cells are seeded at a density of 5×10^3 cells/100 μl per well in 96-well plates and incubated for 24 hours at 37° C. and 5% CO2. Cells are incubated with suboptimal concentrations of cisplatin (e.g. 3 to 10 μg/ml) either in combination with 20 nM 40-O-(2-hydroxyethyl) rapamycin or with the vehicle-control DMSO for an additional 24 hours. The YO-PRO® assay is performed as above to determine cell death or cytotoxicity and, after cell lysis, the relative cell proliferation. […] In the latter case, incubation with compounds is for 30 hours.
(§5) This procedure is repeated however with the use of p53 (TP53) mutated/deficient tumor cell lines, e.g. PC3M (seeded at a density of 3×10^3 cells/100 μl) or DU145 (seeded at a density of 5×10^3 cells/100 μl:HTB-81; American Type Culture Collection). The incubation with compounds in this case is 22 hours for DU145 or 30 hours for PC3M.

A549 cells [6] = experiment: PARP cleavage immunoblot, gemcitabine combination; format: cell-based, human; settings: 20 nM with gemcitabine 5 to 12.5 nM, 72 hours, compared to gemcitabine or the mTOR inhibitor alone
Procedure: A549 cells are seeded at a density of 0.1×10^6 cells/10 ml per 10 cm plates and incubated for 24 hours at 37° C. and 5% CO2. Cells are incubated with suboptimal concentrations of gemcitabine (e.g. 5 to 12.5 nM) either in combination with 20 nM 40-O-(2-hydroxyethyl) rapamycin or with the vehicle-control DMSO for an additional 72 hours. Cell extracts corresponding to 50 μg total protein are resolved by 8% SDS-PAGE electrophoresis and immunoblot analysis is performed using rabbit polyclonal antibodies raised against Poly (ADP-Ribose) Polymerase (PARP) (Cell Signalling Technology catalogue #9542). […] This confirms the above results that, in the p53 (TP53) wild-type A549 cells, the presence of the mTOR inhibitor results in higher levels of cell death at suboptimal gemcitabine concentrations.

PC3M = experiment: YO-PRO cell death/cytotoxicity assay, cisplatin combination; format: cell-based, human; settings: p53 mutated/deficient, 20 nM with cisplatin, 30 hours
Procedure: as §4, §5

[7] = test system: p53 (TP53) wild-type human adenocarcinoma A549 (CCL-185) tumor cells; experiment: YO-PRO cell death/cytotoxicity assay, gemcitabine combination; format: cell-based; settings: 20 nM with gemcitabine 5 to 17.5 nM, 72 hours, p<0.05, ANOVA with Tukey test
Procedure: as §2

[8] = test system: p53 (TP53) wild-type human lung adenocarcinoma A549 cells; experiment: YO-PRO cell death/cytotoxicity assay, cisplatin combination; format: cell-based
Procedure: as §4

[9] = test system: p53 (TP53) wild-type A549 cells; experiment: p53 siRNA transfection, cisplatin treatment, p53/p21/PARP immunoblot; format: cell-based, human; settings: A549 untransfected or LacZ siRNA control transfected
Procedure: p53 (TP53) wild-type A549 cells are seeded at a density of 0.1×10^6 cells/5 ml per 6 cm plates and incubated for 24 hours at 37° C. and 5% CO2. Cells are left untransfected or transiently transfected with 100 nM siRNA targeting either human p53 (Accession number: NM000546; target sequence: 5′-GCA TCT TAT CCG AGT GGA A-3′) or LacZ (Accession number: M55068; target sequence: 5′-GCGGCTGCCGGAATTTACCTT-3′) control siRNA, using Oligofectamine (Invitrogen, Cat # 12252-011). After 30 hours incubation, cells are incubated with increasing concentrations of cisplatin (e.g. 0.5 to 6 μg/ml) for an additional 24 hours. Cell extracts corresponding to 30 μg (p21) and 50 μg (p53 and PARP) total protein are resolved on 15% (p21) and 10% (p53 and PARP) SDS-PAGE electrophoresis, and immunoblot analysis is performed using mouse monoclonal and rabbit polyclonal antibodies raised against p21 and p53/PARP, respectively. […] The same effects on p53 expression, p21 expression and PARP cleavage are also observed with two other siRNA's targeting human p53 (target sequences: 5′-GGA AGA CTC CAG TGG TAA T-3′ and 5′-GAT ATT GAA CAA TGG TTC A-3′).

[10] = test system: p53 (TP53) wild-type A549 cells; experiment: p21 siRNA transfection, cisplatin treatment, p21/PARP immunoblot; format: cell-based, human; settings: A549 untransfected or LacZ siRNA control transfected; cisplatin 1 to 2 μg/ml, 24 hours
Procedure: p53 (TP53) wild-type A549 cells are seeded at a density of 0.1×10^6 cells/5 ml per 6 cm plates and incubated for 24 hours at 37° C. and 5% CO2. Cells are left untransfected or transiently transfected with 100 nM siRNA targeting either p21 (Accession number: NM000389; target sequence: 5′-GTG GAC AGC GAG CAG CTG A-3′) or LacZ (as above) control siRNA, using Oligofectamine (Invitrogen, Cat # 12252-011). After 30 hours incubation, cells are incubated with suboptimal concentrations of cisplatin (e.g. 1 to 2 μg/ml) for an additional 24 hours. Cell extracts corresponding to 30 μg (p21) and 50 μg (PARP) total protein are resolved on 15 and 10% SDS-PAGE electrophoresis, respectively, and immunoblot analysis is performed using mouse monoclonal and rabbit polyclonal antibodies raised against p21 and PARP, respectively.

[11] = cisplatin 0.5 to 6 μg/ml, 24 hours

Row | SMILES | cisplatin-induced upregulation of p21 protein expression ([1]; 20 nM with cisplatin 0.5 to 4 μg/ml, 30 hours) | Bax protein expression [1] | cisplatin-induced upregulation of p21 protein expression ([2]; 20 nM with cisplatin 0.5 to 4 μg/ml, 24 hours) | Bax protein expression [2] | potentiation of cell death [3] | potentiation of cell death [4] | PARP cleavage (a marker of apoptosis) at suboptimal cisplatin concentrations (A549 cells [5]) | potentiation of cell death (DU145) | PARP cleavage (a marker of apoptosis) at suboptimal gemcitabine concentrations (A549 cells [6]) | potentiation of cell death (PC3M) | potentiation of the cell killing effect of suboptimal concentrations of gemcitabine [7] | potentiation of the cell killing effect of suboptimal concentrations of cisplatin ([8]; 20 nM with cisplatin 3 to 10 μg/ml, 24 hours, p<0.05, ANOVA with Tukey test) | interaction between RAD001 and cisplatin (two-way ANOVA) ([8]; p<0.001) | p21 protein expression ([1]; cisplatin alone 0.5 to 4 μg/ml, 30 hours) | p21 protein expression ([2]; cisplatin alone 0.5 to 4 μg/ml, 24 hours) | PARP cleavage (a marker of apoptosis) ([9]; at higher cisplatin concentrations (2 to 6 μg/ml)) | p21 protein expression [9, 11] | p53 protein expression [9, 11] | PARP cleavage (a marker of apoptosis) [10] | p21 protein expression [10]
1 | CO[C@H]1C[C@@H]2CC[C@@H](C)[C@@](O)(O2)C(=O)C(=O)N2CCCC[C@H]2C(=O)O[C@H]([C@H](C)C[C@@H]2CC[C@@H](OCCO)[C@H](OC)C2)CC(=O)[C@H](C)/C=C(\C)[C@@H](O)[C@@H](OC)C(=O)[C@H](C)C[C@H](C)/C=C/C=C/C=C/1C [40-O-(2-hydroxyethyl) rapamycin] | attenuates | unaffected | attenuates | unaffected | No striking or consistent potentiation | No striking or consistent potentiation | increased PARP cleavage | No striking or consistent potentiation | increased PARP cleavage | No striking or consistent potentiation | statistically significant potentiation | statistically significant potentiation | highly significant |  |  |  |  |  |  | 
2 | N.N.[Cl][Pt][Cl] [cisplatin] |  | unaffected |  | unaffected |  |  |  |  |  |  |  |  |  | induces increased p21 protein expression in a concentration-dependent manner | induces increased p21 protein expression in a concentration-dependent manner | evidence of PARP cleavage | induces p53 and p21 protein expression in a concentration-dependent manner | induces p53 and p21 protein expression in a concentration-dependent manner | little evidence of PARP cleavage | induces p21 protein expression in a concentration-dependent manner
